Test results published in patent publication US11801226B2, “Pharmaceutical formulation of odevixibat” (Albireo AB, priority 2018, dated 2023).
Values after ≈ are worked out from the molar mass of the structure shown.

Tests used:
Type in all cases: physicochemical
[1] = Water content / hygroscopicity of crystal modification 1 versus relative humidity
Text: Crystal modification 1 of odevixibat cannot only be obtained from a mixture of water and ethanol, as described above, but also from a slurry of odevixibat in a mixture of water and an organic solvent selected from the group consisting of methanol, 2-propanol, acetone, acetonitrile, 1,4-dioxane, DMF and DMSO. Upon drying of the different mixed solvates obtained under these conditions (crystal modification 2), the same crystalline hydrate of odevixibat is obtained, namely crystal modification 1. Crystal modification 1 contains void volumes that are capable of containing up to about 2 moles of water associated with the crystal per mole of odevixibat, depending on the relative humidity. This form is therefore formally a channel hydrate. At about 30% relative humidity, however, crystal modification 1 contains a substantially stoichiometric amount of about 1.5 moles of water per mole of organic compound and is thus a sesquihydrate. The substantially stoichiometric amount of water is considered advantageous, as the water content of the crystals remains substantially constant even with humidity changes within the normal relative humidity range of about 30% to about 70% RH.
Whereas crystal modification 1 is a sesquihydrate containing about 3.5% (w/w) water at about 30% relative humidity (based on the total crystal weight), it has been observed that the crystal can take up an additional 1.5% (w/w) water when the humidity is increased up to 95% RH. The sorption and desorption of this additional water is fully reversible. The additional water may be adsorbed on the surface or may further fill the channels of the structure. In some embodiments, the term “overhydrated” refers to crystal modification 1 containing from about 1.5 to about 4 moles of water per mole of odevixibat, such as from about 1.5 to about 3.5, or such as from about 1.5 to 3, or such as from about 1.5 to about 2.5, or such as from about 1.5 to about 2 moles of water per mole of odevixibat. In some embodiments, the term “overhydrated” refers to crystal modification 1 containing from about 2 to about 4 moles of water per mole of odevixibat, such as from about 2 to about 3.5, or such as from about 2 to about 3, or such as from about 2 to 2.5 moles of water per mole of odevixibat.

[2] = Solubility of odevixibat in water; settings: pH 7, 37° C.
Text: It is desirable that the use of organic solvents in the preparation of the formulation is avoided. In some embodiments, water is used as the solvent for the preparation of the formulation. […] Because of this low solubility in water, aqueous suspensions of odevixibat can contain larger agglomerates of odevixibat, which may lead to an uneven distribution of the active pharmaceutical ingredient on the cores, i.e. the cores may contain different amounts of odevixibat, which in turn impacts dose uniformity. Accordingly, in some embodiments, the aqueous suspension of odevixibat is homogeneous. In some embodiments, a homogeneous aqueous suspension of odevixibat is sprayed onto the cores.

[3] = Particle size distribution of crystalline odevixibat drug substance; settings: typical value, crystalline material
Text: Crystalline odevixibat was used. Typical values for the particle size distribution of the crystalline material were d10=0.9 μm, d50=4 μm and d90=20 μm, wherein d10, d50 and d90 are defined as the diameters where 10%, 50% and 90%, respectively, of the particle population lies below these values. […]

For `CCCCC1(CCCC)CN(c2ccccc2)c2cc(SC)c(OCC(=O)N[C@@H](C(=O)N[C@@H](CC)C(=O)O)c3ccc(O)cc3)cc2S(=O)(=O)N1` [crystal modification 1], the water content ([1]; about 30% relative humidity) was “about 1.5 moles of water per mole of organic compound”, the “water content of crystal” value ([1]; about 30% relative humidity, based on total crystal weight) was “about 3.5 % (w/w)” and the hygroscopicity ([1]; between about 30 and about 70% RH) was “relatively low hygroscopicity”. The “additional water taken up” value ([1]; humidity increased up to 95% RH, fully reversible) was 1.5 % (w/w).
In the case of `CCCCC1(CCCC)CN(c2ccccc2)c2cc(SC)c(OCC(=O)N[C@@H](C(=O)N[C@@H](CC)C(=O)O)c3ccc(O)cc3)cc2S(=O)(=O)N1` [odevixibat, 1,1-dioxo-3,3-dibutyl-5-phenyl-7-methylthio-8-(N—{(R)-α-[N—((S)-1-carboxypropyl)carbamoyl]-4-hydroxybenzyl}carbamoylmethoxy)-2,3,4,5-tetrahydro-1,2,5-benzothiadiazepine], the solubility [2] is reported as about 30 µg/mL (≈ 40.5 µM), the “particle size distribution d10” value [3] is reported as 0.9 μm and the “particle size distribution d50” value [3] is reported as 4 μm. For the same compound, the “particle size distribution d90” value [3] was 20 μm.
